Source: US20120231482A1, “METHOD, KIT OR DIAGNOSTIC FOR THE DETECTION OF REAGENTS WHICH INDUCE ALTERED CONTRACTILITY” (THE JOHNS HOPKINS UNIVERSITY, priority 2009, published 2012)

Experiments:
skeletal muscle = experiment: Steady-state force-[Ca2+]i relations of skeletal muscle; type: cell-based, rat
From the text: FIG. 6. MLC1 Cys81 necessary for increase in Fmax induced by treatment with HNO donors. (a) Sequence alignment comparing isoforms of rat cardiac (SEQ ID NO:16) and skeletal MLC1 (SEQ ID NO:17) in the region surrounding cardiac Cys81. (b) Steady-state force-[Ca^2+]i relations in control (o) versus NCA-treated (•) from cardiac or skeletal trabeculae indicating loss of increase in maximum force with loss of Cys81 in skeletal isoform with NCA (n=5, each group). (c) 2D Gel shift assay (non-reduced, NR and reduced, DTT) using 10 μg of skeletal or cardiac myofibrils indicating loss of higher molecular weight forms of MLC1 in skeletal HNO treated preparations while maintaining higher molecular weight form of TM (n=3).
To determine if MLC1 Cys81 is involved in the increased maximum force production, the effect of HNO donors was investigated in skeletal muscle preparations. Skeletal muscle isoforms of myofilament proteins contain all of the potential target Cys except for MLC1, which lacks the candidate site Cys81 providing a natural mutant sequence (FIG. 6A). […] The same insensitivity of Fmax to AS was also observed in skinned skeletal muscles (data not shown).

myosin heavy chain α/β = experiment: Modified biotin switch assay, sites of HNO modification; type: biochemical, rat; settings: for number of independent observations of peptide: 25 μM NCA or 500 μM AS; for Position of modified Cys: myosin heavy chain (α/β), Table 2
Protocol: (§1) Rat myofibrillar preparations, as described in [7], were obtained from frozen ventricles (Pel Freez Biologicals) minced in 20 volumes/tissue weight of 4° C. relax buffer (SRB (75 mM KCL, 10 mM imidazole pH 7.2, 2 mM MgCl2) plus 4 mM phosphocreatine, 1 mM ATP, 50 mM BDM, 1 mM benzamidine-HCL, 0.1 mM PMSF, 1 μg/ml leupeptin, 1 μg/ml pepstatin, 1% (v/v) Trixon X-100) and adjusted to 10 mM EDTA. Minced preparations were centrifuged for 8 min at 3000xg and the supernant was decanted. Resulting pellets were resuspended in 10 volumes of SRB plus 1% Triton X-100 and subjected to 6 strokes in a Duall tissue homogenizer and centrifuged as above. Pellets were gently resuspended and centrifuged as above twice more in SRB including 1% (v/v) Triton X-100, twice in SRB lacking Triton X-100 and once in K-60 buffer (60 mM KCL, 20 mM MOPS, 2 mM MgCl2 pH 7) before being resuspended in 5 volumes of K-60.
(§2) Detection of HNO modifications by Modified Biotin Switch. HNO modified thiols were detected using a modification to the standard biotin switch protocol. In brief, 100 μg of rat myofibrils/treatment were diluted to 0.5 μg/μl in HEN (250 mM HEPES pH 7.7, 1 mM EDTA and 0.1 mM neocuproine) including 0.1% (w/v) SDS and exposed to a treatment for 10 min at 37° C. which was subsequently removed by acetone precipitation. Remaining free thiols were blocked by addition of 300 μl of HEN including 2.5% (w/v) SDS and 20 mM N-ethylmaleimide (NEM), incubated for 20 min at 50° C. Excess NEM was removed by acetone precipitation. HNO and/or NO modified thiols were reduced using 5 mM DTT or 1 mM ascorbate in 150 μl of HEN including 1% (w/v) SDS and biotinylated with 0.8 mM Biotin-HPDP (Pierce) for one hour at room temperature. Excess biotin-HPDP was removed by acetone precipitation (2 volumes) and resultant pellets were carefully washed with an additional volume of acetone. Biotinylated proteins were resuspended in 1 ml of HEN including 0.1% (w/v) SDS and captured by incubation with 15 μl of washed, packed Ultralink Immobilized Streptavidin (Pierce) for one hour at room temperature. Beads were washed four times in 50 bead volumes of HEN (twice including 0.1% (w/v) SDS, twice including 600 mM NaCl) and twice with EB (20 mM HEPES pH 7.7, 100 mM NaCl, 1 mM EDTA). Captured proteins were eluted with 40 μl of EB containing 100 mM DTT, mixed with 15 μl of 4×LDS sample buffer, boiled, separated by SDS PAGE and silver stained. For MS studies, biotinylated proteins were digested overnight with trypsin (Promega) prior to capture and washed ten additional times with 5 mM ammonium bicarbonate/20% acetonitrile before being eluted in 100 μl of wash buffer including 100 mM DTT as described. Captured peptides were identified using a LTQ linear ion trap tandem mass spectrometer (ThermoFinnigan, Waltham Mass. USA) with data searched against the rat IPI primary sequence database using the sorcerer searching platform (sagen).
(§3) To investigate the modifications that underlie the difference seen in the functional effect of these two compounds we performed an analysis on the myofilament proteins, using a modified biotin-switch method, followed by mass spectrometry for identification (FIG. 3). Following treatment with HNO or control compounds, unmodified cysteines are blocked with NEM before treatment with a reducing agent and labeling the exposed cysteines with a biotin group (FIG. 3A). In this case, 5 mM DTT was used as the reducing agent because it was shown in the physiological studies to reverse the effect of the treatment. […] Tryptic or chymotryptic peptides containing the modified cysteine residues were captured and identified by LC/MS/MS. […] To parse the role of candidate sites of modification between these two effects a comparative proteomics experiment was designed where modifications specific to NCA treatment would be considered candidates for the Ca^2+ effect while sites identified in common between AS and NCA could be candidates for the force effect (FIG. 3C). […]

α actinin = experiment: as above; type: biochemical, rat; settings: for number of independent observations of peptide: Cys 889, tryptic peptide ELPPDQAQYCIKR, 25 μM NCA or 500 μM AS; for Position of modified Cys: α-Actinin, Table 2
Protocol: as §1, §2, §3

Row | SMILES | Fmax (skeletal muscle; skinned skeletal muscles, AS, data not shown) | number of independent observations of peptide (myosin heavy chain α/β; Cys 907, chymotryptic peptide ADAEERCDQL) | Position of modified Cys (myosin heavy chain α/β) | number of independent observations of peptide (α actinin) | Position of modified Cys (α actinin) | Ca50 (skeletal muscle; skeletal muscle, NCA 25 μmol/L) [µM] | Fmax (skeletal muscle; skeletal muscle, NCA 25 μmol/L) [mN/mm^2] | Hill (skeletal muscle; skeletal muscle, NCA 25 μmol/L) | number of independent observations of peptide (myosin heavy chain α/β; Cys 1750, tryptic peptide MDADLSQLQTEVEEAVQECR)
1 | [Na+].[Na+].[O-][N+]([O-])=NO [AS, Angeli's Salt] | insensitivity | 2 | 907(α/β) | 3 | 889 | – | – | – | –
2 | CC(=O)OC1(N=O)CCCCC1 [NCA, 1-nitrosocyclohexylacetate] | – | – | 1750(α/β) | 2 | 889 | 0.8 ± 0.1 | 33±3.8 | 4.36±0.81 | 2
